# According to US10802016B2, “Microdroplet based bioassay platform” (Northeastern University, priority 2015, dated 2020):
# Tested on: DC
# Test: LPS induced IL-6 secretion from single dendritic cells in droplets
# Type: cell-based, mouse
# Details: single DC co-encapsulated with LPS; versus droplets with no LPS
# Excerpt: FIG. 16A is a schematic illustration of […] carried out in a microdroplet.
# The activation and monitoring of live single cells for secretion and cell surface markers have been measured simultaneously. In particular, droplet based technology can be applied to simultaneously stimulate mouse DC maturation with an immunological adjuvant, lipopolysaccharide (LPS), and to monitor two phenotypic markers of DCs. The maturation phenotype of the live DC was followed by measuring CD86 expression and IL-6 secretion. DC were co-encapsulated with LPS and bioassay reagents (microsphere sensors and antibodies). This method made it possible to distinguish the responses of individual cells to LPS stimulation in the confined volume of droplets. In addition to CD86, LPS induced IL-6 secretion could be monitored from the same encapsulated single DCs (FIG. 16B). The signal was detected in droplets after 10 min in the array.
substance,measurement,value
lipopolysaccharide [LPS],IL-6 levels in droplets,significantly higher
